Test results reported in ChEMBL document CHEMBL5260817, “Polyamine-based analogs and conjugates as antikinetoplastid agents” (Eur J Med Chem, 2017).
pIC50, pKi: −log10 of the molar value. Converted amounts (≈) assume the structure as drawn. Values belong to the molecule of their own block, whether it stands above or below them.

Columns and labels:
Trypanothione reductase [1] = target: T1, Trypanothione reductase (Trypanosoma cruzi, UniProt P28593); assay: Inhibition of Trypanosoma cruzi TryR expressed in escherichia coli SG5
T1 sequence (P28593 whole entry): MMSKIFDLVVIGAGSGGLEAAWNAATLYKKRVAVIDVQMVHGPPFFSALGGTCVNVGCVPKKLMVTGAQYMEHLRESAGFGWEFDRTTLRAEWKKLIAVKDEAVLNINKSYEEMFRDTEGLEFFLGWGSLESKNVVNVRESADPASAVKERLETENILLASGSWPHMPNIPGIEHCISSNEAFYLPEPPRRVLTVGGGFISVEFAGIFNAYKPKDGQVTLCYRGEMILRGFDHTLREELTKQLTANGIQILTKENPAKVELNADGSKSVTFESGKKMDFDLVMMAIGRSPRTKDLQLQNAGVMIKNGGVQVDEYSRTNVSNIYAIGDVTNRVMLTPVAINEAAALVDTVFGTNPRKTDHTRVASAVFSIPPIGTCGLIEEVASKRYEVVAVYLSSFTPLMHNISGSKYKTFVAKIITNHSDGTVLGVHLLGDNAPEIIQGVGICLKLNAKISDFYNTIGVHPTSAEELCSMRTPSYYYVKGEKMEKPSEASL

Trypanosoma cruzi [2] = assay: Antiprotozoal activity against Trypanosoma cruzi measured after 24 hrs; assay type: functional, organism-based
[3] = system: Trypanosoma brucei rhodesiense; assay: Antiprotozoal activity against Trypanosoma brucei rhodesiense; assay type: functional, organism-based
Trypanosoma cruzi [4] = assay: Antiprotozoal activity against Trypanosoma cruzi epimastigote at 10 uM relative to control; assay type: functional
Trypanothione reductase [5] = target: T1, Trypanothione reductase; assay: Inhibition of Trypanosoma cruzi TryR assessed as inhibition constant
Leishmania donovani [6] = assay: Antiprotozoal activity against Leishmania donovani MHOM/IN/1978/UR6 strain promastigotes assessed as parasite growth inhibition; assay type: functional, organism-based
Leishmania donovani [7] = assay: Antiprotozoal activity against Leishmania donovani WR555 infected in mouse liver assessed as parasite growth inhibition at 10 mg/kg relative to control; assay type: functional
Leishmania donovani [8] = assay: Antiprotozoal activity against Leishmania donovani WR555 infected in mouse liver assessed as parasite growth inhibition at 15 mg/kg relative to control; assay type: functional
Leishmania donovani [9] = assay: Antiprotozoal activity against Leishmania donovani WR555 assessed as growth inhibition at 1 uM relative to control; assay type: functional
Trypanosoma brucei [10] = assay: Trypanocidal activity against Trypanosoma brucei K 243-As-10-3 strain; assay type: functional, organism-based
Trypanosoma brucei [11] = assay: Trypanocidal activity against Trypanosoma brucei K 269 strain; assay type: functional, organism-based
Trypanosoma brucei [12] = assay: Trypanocidal activity against Trypanosoma brucei K 243 strain; assay type: functional, organism-based
Trypanosoma brucei [13] = assay: Trypanocidal activity against Trypanosoma brucei Lab 110 strain; assay type: functional, organism-based
[14] = Inhibition of Leishmania infantum His tagged TryS in presence of ATP by LDH/PK assay
Leishmania infantum [15] = assay: Antiprotozoal activity against Leishmania infantum; assay type: functional, organism-based
[16] = Inhibition of Trypanosoma brucei His tagged TryS in presence of ATP by LDH/PK assay
Trypanothione synthetase = Trypanothione synthetase (Crithidia fasciculata, UniProt O60993); assay: Inhibition of Crithidia fasciculata His tagged TryS in presence of ATP by LDH/PK assay
Sequence of Trypanothione synthetase (O60993 whole entry): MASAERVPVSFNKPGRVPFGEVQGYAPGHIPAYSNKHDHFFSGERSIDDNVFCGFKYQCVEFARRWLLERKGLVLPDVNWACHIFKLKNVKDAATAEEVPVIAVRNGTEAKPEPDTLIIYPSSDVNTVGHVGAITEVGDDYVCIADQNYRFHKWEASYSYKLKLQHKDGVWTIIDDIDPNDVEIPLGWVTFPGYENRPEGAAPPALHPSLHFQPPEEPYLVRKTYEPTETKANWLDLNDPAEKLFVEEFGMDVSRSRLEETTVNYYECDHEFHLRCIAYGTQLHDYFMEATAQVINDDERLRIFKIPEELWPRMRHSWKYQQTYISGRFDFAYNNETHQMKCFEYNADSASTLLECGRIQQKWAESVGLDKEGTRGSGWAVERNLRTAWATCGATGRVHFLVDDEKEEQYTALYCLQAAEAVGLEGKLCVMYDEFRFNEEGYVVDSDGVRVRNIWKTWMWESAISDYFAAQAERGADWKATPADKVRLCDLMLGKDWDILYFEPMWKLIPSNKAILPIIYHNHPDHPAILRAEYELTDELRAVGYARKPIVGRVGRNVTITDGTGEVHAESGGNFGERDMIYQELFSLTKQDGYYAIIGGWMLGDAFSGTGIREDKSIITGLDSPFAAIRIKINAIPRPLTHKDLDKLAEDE

[17] = system: Trypanosoma brucei rhodesiense; assay: Antiprotozoal activity against Trypanosoma brucei rhodesiense STIB900 strain assessed as trypanocidal activity; assay type: functional, organism-based
[18] = Anticancer activity against rat Myoblast cells assessed as cell growth inhibition; assay type: functional, cell-based
Leishmania donovani [19] = assay: Antiprotozoal activity against Leishmania donovani MHOM/PE/84/LC26 amastigotes infected in mouse J774.2 cells measured after 72 hrs; assay type: functional, organism-based; conditions: J774.2, 72 h
Leishmania infantum [20] = assay: Antiprotozoal activity against Leishmania infantum MCAN/ES/2001/UCM-10 amastigotes infected in mouse J774.2 cells measured after 72 hrs; assay type: functional, organism-based; conditions: J774.2, 72 h
HepG2 [21] = assay: Anticancer activity against human HepG2 cells assessed as cell growth inhibition; assay type: functional, cell-based
Trypanosoma brucei [22] = assay: Antiprotozoal activity against Trypanosoma […] STIB900 strain; assay type: functional, organism-based
[23] = Inhibition of Fulllength Trypanosoma brucei MetRS expressed in Escherichia coli in presence of ATP
[24] = Anticancer activity against human CRL-8155 cells assessed as cell growth inhibition; assay type: functional, cell-based; conditions: CRL8155
Trypanosoma cruzi [25] = assay: Antiprotozoal activity against Trypanosoma cruzi trypomastigotes assessed as growth inhibition at 1.6 uM relative to control; assay type: functional
Trypanosoma cruzi [26] = assay: Antiprotozoal activity against Trypanosoma cruzi Y strain epimastigotes; assay type: functional, organism-based
Trypanosoma cruzi [27] = assay: Antiprotozoal activity against Trypanosoma cruzi […]; assay type: functional, organism-based
Trypanosoma cruzi [28] = assay: Antiprotozoal activity against Trypanosoma cruzi […] strain infected in mouse macrophage cell measured after 3 days; assay type: functional, organism-based; conditions: 72 h
Trypanosoma cruzi [29] = assay: Antiprotozoal activity against Trypanosoma cruzi MHOM/BR/OO/Y strain infected in mouse macrophage cell measured after 3 days; assay type: functional, organism-based; conditions: 72 h
Leishmania donovani [30] = assay: Antiprotozoal activity against Leishmania donovani MHOM/ET/67/L82 strain infected in mouse macrophage cell measured after 5 days; assay type: functional, organism-based; conditions: MHOM/ET/67/L82, Macrophage, 120 h
HepG2 [31] = assay: Anticancer activity against human HepG2 cells assessed as cell growth inhibition measured after 72 hrs by MTT assay; assay type: functional, cell-based; conditions: HepG2, 72 h
Leishmania donovani [32] = assay: Antiprotozoal activity against Leishmania donovani MHOM/IN/00/DEV strain promastigotes assessed as growth inhibition measured after 72 hrs by MTT assay; assay type: functional, organism-based
Leishmania donovani [33] = assay: Antiprotozoal activity against Leishmania donovani promastigote assessed as lethality at 10 uM relative to control; assay type: functional
Trypanosoma brucei [34] = assay: Antiprotozoal activity against Trypanosoma brucei […] assessed as lethality at 10 uM relative to control; assay type: functional
MRC5 = assay: Anticancer activity against human MRC5 cells assessed as cell growth inhibition; assay type: functional, cell-based
Leishmania infantum [35] = assay: Antiprotozoal activity against Leishmania infantum amastigotes measured after 7 days by microscopic analysis; assay type: functional, organism-based; conditions: 168 h
Trypanosoma cruzi [36] = assay: Antiprotozoal activity against Trypanosoma cruzi amastigotes measured after 4 days; assay type: functional, organism-based; conditions: 96 h
Trypanosoma brucei [37] = assay: Antiprotozoal activity against Trypanosoma brucei trypomastigotes measured after 4 days by MTT assay; assay type: functional, organism-based; conditions: 96 h
[38] = Inhibition of Trypanosoma MetRS
[39] = Inhibition of Trypanosoma brucei MetRS
Trypanosoma brucei [40] = assay: Antiprotozoal activity against Trypanosoma brucei; assay type: functional, organism-based
Trypanosoma brucei [41] = assay: Antiprotozoal activity against Trypanosoma brucei infected in HepG2 cells; assay type: functional, organism-based
Leishmania donovani [42] = assay: Antiprotozoal activity against Leishmania donovani infected in mouse macrophage cell; assay type: functional, organism-based
Leishmania donovani [43] = assay: Leishmanicidal activity against Leishmania donovani; assay type: functional, organism-based
Syrian golden hamster = assay: In vivo antiprotozoal activity against Leishmania donovani amastigotes in hamster spleen assessed as reduction of amastigotes count measured after 7 days relative to control; assay type: functional, Mesocricetus auratus; conditions: time 7 day

pIC50 (Trypanothione reductase [1]): 6.00
Compound: NCCCCN(CCCN)CCCNc1cc(Cl)ccc1Sc1ccccc1

IC50 (Trypanosoma cruzi [2]): 31.2 µg/mL (≈ 128 µM)
Compound: CCCCCCCCCCC(O)CNCCN (configuration not stated)

pIC50 [3]: 6.01 | pKi (Trypanothione reductase [5]): 4.57
Compound: CN1CCN(CCCNc2cc(Cl)ccc2Sc2ccccc2)CC1
inhibition at 10 µM (Trypanosoma cruzi [4]): 85%

Compound: c1ccc(CNCCCNCCCCCCCNCCCNCc2ccccc2)cc1
pIC50 (Leishmania donovani [6]): 4.74 | inhibition in vivo at 10 mg/kg (Leishmania donovani [7]): 65% | inhibition in vivo at 15 mg/kg (Leishmania donovani [8]): 99.9% | inhibition at 1 µM (Leishmania donovani [9]): 77% | pIC50 (Trypanosoma brucei [10]): 5.00 | pIC50 (Trypanosoma brucei [11]): 5.00 | pIC50 (Trypanosoma brucei [12]): 5.00 | pIC50 (Trypanosoma brucei [13]): 5.00

pIC50 [14]: 6.82 | pIC50 (Leishmania infantum [15]): 4.90 | pIC50 (Trypanothione synthetase): 7.52
Compound: CNCCNC(=O)CN1C(=O)Cc2c([nH]c3ccc(Br)cc23)-c2ccc(Cl)cc21
pIC50 [16]: 4.23

Compound: CN(C)CCCNc1cc(Cl)ccc1Sc1ccc(C(F)(F)F)cc1
pIC50 [17]: 5.92 | pIC50 [18]: 5.01

pIC50 (Leishmania donovani [19]): 4.70 | pIC50 (Leishmania infantum [20]): 4.70
Compound: CN1CCCNc2c(c(=O)c2=O)NCCCN(C)CCCNc2c(c(=O)c2=O)NCCC1

pIC50 (HepG2 [21]): 4.89 | pIC50 (Trypanosoma brucei [22]): 6.70
Compound: O=C(NCCCNCc1cc(Cl)cc(Cl)c1)Nc1ccsc1
pIC50 [23]: 7.55 | pIC50 [24]: 6.70

Compound: C1CCC(CCCNCCCN2CCN(CCCNCCCC3CCCCC3)CC2)CC1
inhibition at 1.6 µM (Trypanosoma cruzi [25]): 70%

pIC50 (Trypanosoma cruzi [26]): 2.93
Compound: NCCC(=O)CN

pIC50 (Trypanosoma cruzi [27]): 5.33
Compound: CCCCN(CCCC)CCCN

Compound: CC1=C(CCCCCC(=O)NCCCCNCCCNC(=O)CCCCCC2=C(C)C(=O)c3ccccc3C2=O)C(=O)c2ccccc2C1=O
pIC50 (Trypanosoma cruzi [28]): > 5.30 | pIC50 (Trypanosoma cruzi [29]): > 5.30 | pIC50 (Leishmania donovani [30]): > 5.30

pIC50 (HepG2 [31]): 5.81
Compound: c1ccc2c(c1)cc1c(-c3ccc(CNCCCN4CCN(CCCNCc5ccc(-c6nc7ccccc7n7c6cc6ccccc67)cc5)CC4)cc3)nc3ccccc3n12
pIC50 (Leishmania donovani [32]): 6.24

Compound: COc1ccc2nc3cc(Cl)ccc3c(NCCNCCCNCCNc3c4ccc(Cl)cc4nc4ccc(OC)cc34)c2c1
Activity (Leishmania donovani [33]): 99% | Activity (Trypanosoma brucei [34]): 99%

pIC50 (Leishmania infantum [35]): > 5.81 | pIC50 (Trypanosoma cruzi [36]): > 5.81 | pIC50 (Trypanosoma brucei [37]): > 5.81
Compound: COc1ccc2nc3cc(Cl)ccc3c(NCCCN(CCCNc3c4ccc(Cl)cc4nc4ccc(OC)cc34)C(=O)C(NC(=O)OC(C)(C)C)C(C)C)c2c1 (configuration not stated)
pIC50 (MRC5): < 5.50

pKi [38]: 8.70 | pKi [39]: 8.70 | pIC50 (Trypanosoma brucei [40]): 9.40
Compound: Fc1ccc2[nH]c(NCCCN[C@@H]3CCNc4c(Cl)cc(Cl)cc43)nc2n1
pIC50 [39]: 8.70

pIC50 (Trypanosoma brucei [41]): ≥ 5.00
Compound: COc1ccc(CNCCNCc2ccc(OC)cc2)cc1

Compound: CCCCCCCCCCCCCCCCNc1c(NCC[N+](C)(C)C)c(=O)c1=O
pIC50 (Leishmania donovani [42]): < 4.92 | pIC50 (Leishmania donovani [43]): < 4.92

Compound: COC(=O)/N=C(\NCCCN1CCOCC1)NC(=O)OC
inhibition (INH) (Syrian golden hamster): 80%
